# Results from patent US10668051B2, “Modulators of calcium release-activated calcium channel” (Rhizen Pharmaceuticals SA, priority 2009, dated 2020).
# Structures can show the parent of a compound that is named as a salt.
# Target: CRAC channels (Homo sapiens (Human), UniProt Q96D31)
# Experiment: In-vitro CRAC channel inhibition assay in Jurkat cells (thapsigargin-induced calcium influx)
# Format: cell-based
# Protocol: 1A. In-Vitro CRAC Channel Inhibition Assay in Jurkat Cells
# Plate is incubated at 37° C./5% CO2 for 30 min followed by further 15 min incubation at room temperature. Test compounds (DMSO stocks diluted in Ca^2+ and Mg^2+ free Hanks buffer) at desired concentrations were added to the wells and incubated for 15 min. Thapsigargin (1 μM final concentration) was added to the wells and incubated for 15 min to inhibit the Sarco-endoplasmic reticulum Ca^2+ ATPase pump thereby depleting endoplasmic calcium and raising cytosolic calcium concentrations. Store-operated calcium entry was initiated by adding extracellular Ca^2+ to a final concentration of 1.8 mM. Fluorescence was monitored over 5 min on a plate reader (BMG Labtech., Germany) with excitation at 485 nm and; an emission wavelength at 520 nm. Data were analyzed using GraphPad Prism. IC50 for each compound was determined based on the percent inhibition of thapsigargin-induced calcium influx into cells.
# CRAC channels, sequence (Q96D31 whole entry): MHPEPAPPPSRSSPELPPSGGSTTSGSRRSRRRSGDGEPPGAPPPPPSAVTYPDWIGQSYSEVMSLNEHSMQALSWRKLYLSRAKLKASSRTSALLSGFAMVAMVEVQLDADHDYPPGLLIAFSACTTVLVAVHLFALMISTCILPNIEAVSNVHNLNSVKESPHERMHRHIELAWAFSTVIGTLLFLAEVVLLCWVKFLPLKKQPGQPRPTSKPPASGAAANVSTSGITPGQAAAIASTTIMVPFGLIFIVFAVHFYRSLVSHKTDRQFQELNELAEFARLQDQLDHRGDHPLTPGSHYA
row,SMILES,inhibition at 1 µM
1,"O=C(Nc1ccc(-n2nc(C3CC3)cc2C2CC2)cc1)c1c(F)cccc1F [Example 8, N-[4-(3,5-dicyclopropyl-1H-pyrazol-1-yl)phenyl]-2,6-difluorobenzamide]",100%
2,"O=C(Nc1ccc(-n2nc(C(F)(F)F)cc2C2CC2)nc1)c1ccncc1F [Example 114, N-{6-[5-cyclopropyl-3-(trifluoromethyl)-1H-pyrazol-1-yl]pyridin-3-yl}-3-fluoroisonicotinamide]",88.7%
3,"Cc1ncsc1C(=O)N(C)c1ccc(-n2nc(C(F)(F)F)cc2C2CC2)cc1 [Example 54, N-{4-[5-cyclopropyl-3-(trifluoromethyl)-1H-pyrazol-1-yl]phenyl}-N,4-dimethylthiazole-5-carboxamide]",0%
4,"O=C(Nc1ccc(-n2nc(C(F)(F)F)cc2C2CC2)cc1)c1ccncc1 [Example 66, N-{4-[5-cyclopropyl-3-(trifluoromethyl)-1H-pyrazol-1-yl]phenyl}pyridine-4-carboxamide hydrochloride]",100%
5,"O=C(Nc1ccc(-n2nc(C3CC3)cc2C2CC2)nc1)c1c(Cl)cncc1Cl [Example 50, 3,5-dichloro-N-[6-(3,5-dicyclopropyl-1H-pyrazol-1-yl)pyridin-3-yl]isonicotinamide hydrochloride]",29.8%
6,"Cc1ncsc1C(=O)Nc1ccc(-n2nc(C3CC3)cc2C2CC2)c(F)c1 [Example 29, N-[4-(3,5-dicyclopropyl-1H-pyrazol-1-yl)-3-fluorophenyl]-4-methylthiazole-5-carboxamide]",100%
7,"O=C(Nc1c(F)cccc1F)c1ccc(-n2nc(C(F)(F)F)cc2C2CC2)nc1 [Example 122, 6-[5-cyclopropyl-3-(trifluoromethyl)-1H-pyrazol-1-yl]-N-(2,6-difluorophenyl) nicotinamide]",100%
8,"Cc1ncncc1C(=O)Nc1ccc(-n2nc(C3CC3)cc2C2CC2)cc1 [Example 18, N-[4-(3,5-dicyclopropyl-1H-pyrazol-1-yl)phenyl]-4-methylpyrimidine-5-carboxamide]",82.8%
9,"Cc1ncncc1C(=O)Nc1ccc(-n2nc(C3CC3)cc2C2CC2)nc1 [Example 51, N-[6-(3,5-dicyclopropyl-1H-pyrazol-1-yl)pyridin-3-yl]-4-methylpyrimidine-5-carboxamide hydrochloride]",0%
10,"Cc1ncncc1C(=O)Nc1ccc(-n2nc(C3CC3)cc2C2CC2)c(F)c1 [Example 36, N-[4-(3,5-dicyclopropyl-1H-pyrazol-1-yl)-3-fluorophenyl]-4-methylpyrimidine-5-carboxamide]",68.2%
11,"Cc1ccccc1C(=O)Nc1ccc(-n2nc(C(F)(F)F)cc2C2CC2)c(F)c1 [Example 86, N-{4-[5-cyclopropyl-3-(trifluoromethyl)-1H-pyrazol-1-yl]-3-fluorophenyl}-2-methylbenzamide]",86.6%
12,"O=C(Cc1ccncc1)Nc1ccc(-n2nc(C3CC3)cc2C2CC2)cc1 [Example 24, N-[4-(3,5-dicyclopropyl-1H-pyrazol-1-yl)phenyl]-2-(pyridin-4-yl)acetamide hydrochloride]",38%
13,"CS(=O)(=O)c1ccc(Cl)c(C(=O)Nc2ccc(-n3nc(C(F)(F)F)cc3C3CC3)cc2)c1 [Example 65, 2-chloro-N-{4-[5-cyclopropyl-3-(trifluoromethyl)-1H-pyrazol-1-yl]phenyl}-5-(methylsulfonyl)benzamide]",97.9%
14,"O=C(Nc1ccc(-n2nc(C(F)(F)F)cc2C2CC2)cc1)c1ccncc1F [Example 67, N-{4-[5-cyclopropyl-3-(trifluoromethyl)-1H-pyrazol-1-yl]phenyl}-3-fluoroisonicotinamide]",100%
15,"O=C(Nc1ccc(-n2nc(C3CC3)cc2C2CC2)cc1)c1ccncc1F [Example 16, N-[4-(3,5-dicyclopropyl-1H-pyrazole-1-yl)phenyl]-3-fluoroisonicotinamide]",92.8%
16,"Cc1ncncc1C(=O)Nc1ccc(-n2nc(C(F)(F)F)cc2C2CC2)nc1 [Example 116, N-{6-[5-cyclopropyl-3-(trifluoromethyl)-1H-pyrazol-1-yl]pyridin-3-yl}-4-methylpyrimidine-5-carboxamide]",15.4%
17,"O=C(Cc1ccccn1)Nc1ccc(-n2nc(C(F)(F)F)c(Cl)c2C2CC2)c(F)c1 [Example 96, N-{4-[4-chloro-5-cyclopropyl-3-(trifluoromethyl)-1H-pyrazol-1-yl]-3-fluorophenyl}-2-(pyridin-2-yl)acetamide hydrochloride]",18%
18,"Cc1ncoc1C(=O)Nc1ccc(-n2nc(C(F)(F)F)cc2C2CC2)c(F)c1 [Example 132, N-{4-[5-cyclopropyl-3-(trifluoromethyl)-1H-pyrazol-1-yl]-3-fluorophenyl}-4-methyloxazole-5-carboxamide]",85.2%

row,SMILES,inhibition at 1 µM
1,"Cc1ncncc1C(=O)Nc1ccc(-n2nc(C(F)(F)F)cc2C2CC2)cc1 [Example 68, N-{4-[5-cyclopropyl-3-(trifluoromethyl)-1H-pyrazol-1-yl]phenyl}-4-methylpyrimidine-5-carboxamide]",61.5%
2,"O=C(Cc1ccc(F)cc1)Nc1ccc(-n2nc(C3CC3)cc2C2CC2)cc1 [Example 20, N-[4-(3,5-dicyclopropyl-1H-pyrazol-1-yl)phenyl]-2-(4-fluorophenyl)acetamide]",70.2%
3,"Cc1ncncc1C(=O)Nc1ccc(-n2nc(C(F)(F)F)c(Cl)c2C2CC2)c(F)c1 [Example 119, N-{4-[4-chloro-5-cyclopropyl-3-(trifluoromethyl)-1H-pyrazol-1-yl]-3-fluorophenyl}-4-methylpyrimidine-5-carboxamide]",40.5%
4,"Cc1ncsc1C(=O)Nc1ccc(-n2nc(C(F)(F)F)c(Cl)c2C2CC2)nc1 [Example 123, N-{6-[4-chloro-5-cyclopropyl-3-trifluoromethyl-1H-pyrazol-1-yl]pyridin-3-yl}-4-methylthiazole-5-carboxamide]",31%
5,"O=C(Nc1ccc(-n2nc(C3CC3)cc2C2CC2)nc1)c1c(F)cccc1F [Example 45, N-[6-(3,5-dicyclopropyl-1H-pyrazol-1-yl)pyridin-3-yl]-2,6-difluorobenzamide hydrochloride]",72.3%
6,"O=C(Nc1ccc(-n2nc(C(F)(F)F)cc2C2CC2)c(F)c1)c1cccnc1 [Example 89, N-{4-[5-cyclopropyl-3-(trifluoromethyl)-1H-pyrazol-1-yl]-3-fluorophenyl}nicotinamide hydrochloride]",100%
7,O=C(Nc1c(Cl)cccc1Cl)c1ccc(-n2nc(C(F)(F)F)cc2C2CC2)c(F)c1 [Example 98],85.6%
8,"Cn1ccnc1C(=O)Nc1ccc(-n2nc(C(F)(F)F)cc2C2CC2)cc1 [Example 58, N-{4-[5-cyclopropyl-3-(trifluoromethyl)-1H-pyrazol-1-yl]phenyl}-1-methyl-1H-imidazole-2-carboxamide]",40.5%
9,"Cc1nnsc1NC(=O)Nc1ccc(-n2nc(C(F)(F)F)cc2C2CC2)cc1 [Example 75, 1-{4-[5-cyclopropyl-3-(trifluoromethyl)-1H-pyrazol-1-yl]phenyl}-3-(4-methyl-1,2,3-thiadiazol-5-yl)urea]",0%
10,"O=C(Nc1c(F)cccc1Cl)c1ccc(-n2nc(C(F)(F)F)cc2C2CC2)c(F)c1 [Example 128, N-(2-chloro-6-fluorophenyl)-4-[5-cyclopropyl-3-(trifluoromethyl)-1H-pyrazol-1-yl]-3-fluorobenzamide]",100%
11,"Cc1ccccc1NC(=O)c1ccc(-n2nc(C3CC3)cc2C2CC2)nc1 [Example 42, 6-(3,5-dicyclopropyl-1H-pyrazol-1-yl)-N-o-tolylnicotinamide]",26.2%
12,"O=C(Nc1ccc(-n2nc(C(F)(F)F)cc2C2CC2)nc1)c1ccncc1 [Example 113, N-{6-[5-cyclopropyl-3-(trifluoromethyl)-1H-pyrazol-1-yl]pyridin-3-yl}isonicotinamide hydrochloride]",100%
13,"O=C(Cc1ccncc1)Nc1ccc(-n2nc(C(F)(F)F)cc2C2CC2)nc1 [Example 118, N-{6-[5-cyclopropyl-3-(trifluoromethyl)-1H-pyrazol-1-yl]pyridin-3-yl}-2-(pyridin-4-yl)acetamide hydrochloride]",20.9%
14,"Cc1ncncc1NC(=O)c1ccc(-n2nc(C(F)(F)F)cc2C2CC2)c(F)c1 [Example 134, 4-[5-cyclopropyl-3-(trifluoromethyl)-1H-pyrazol-1-yl]-3-fluoro-N-(4-methylpyrimidin-5-yl)benzamide]",18.6%
15,"Cc1ncsc1C(=O)Nc1ccc(-n2nc(C3CC3)cc2C2CC2)nc1 [Example 39, N-[6-(3,5-dicyclopropyl-1H-pyrazol-1-yl)pyridin-3-yl]-4-methylthiazole-5-carboxamide hydrochloride]",41.3%
16,"CSc1ccc(Cl)c(C(=O)Nc2ccc(-n3nc(C(F)(F)F)cc3C3CC3)cc2)c1 [Example 64, 2-chloro-N-{4-[5-cyclopropyl-3-(trifluoromethyl)-1H-pyrazol-1-yl]phenyl}-5-(methylthio)benzamide]",100%
17,"O=C(Cc1ccc(F)cc1)Nc1ccc(-n2nc(C(F)(F)F)cc2C2CC2)cc1 [Example 70, N-{4-[5-cyclopropyl-3-(trifluoromethyl)-1H-pyrazol-1-yl]phenyl}-2-(4-fluorophenyl)acetamide]",68.9%
18,"Cc1ncsc1C(=O)Nc1cnc(-n2nc(C(F)(F)F)cc2C2CC2)nc1 [Example 129, N-{2-[5-cyclopropyl-3-(trifluoromethyl)-1H-pyrazol-1-yl]pyrimidin-5-yl}-4-methyl thiazole-5-carboxamide]",28.3%
